PMC10135050, “Neutralizing Carbapenem Resistance by Co-Administering Meropenem with Novel β-Lactam-Metallo-β-Lactamase Inhibitors” (Antibiotics, 2023)
Converted amounts (≈) assume the structure as drawn. Read-outs that look alike come from different tables or passages of the source.

Legend:
[1] = test system: HepG2 cells; assay: MTT cell viability assay; type: cell-based, human
Experimental: (§1) HepG2 cells were cultured in 25 mL cell culture flasks using Eagle’s minimum essentials medium (EMEM) supplemented with 10% fetal bovine serum, 1% pen-strep-fungizone and 1% L-glutamine, maintained in a humidified incubator (37 °C, 5% CO2) until approximately 80% confluence.
(§2) The MTT assay was one of the methods used to determine in vitro cell viability of BP on HepG2 cells. HepG2 cells (15,000 cells/well) were seeded into a 96-well microtiter plate and allowed to adhere overnight (37 °C, 5% CO2). Thereafter, the cells were incubated (37 °C, 5% CO2) with a range of BP concentrations (0, 1, 8, 10, 50, 100 and 200 μg/mL) in triplicate for 6 h. After the 6 h incubation, the cells were washed with 0.1 M phosphate-buffered saline (PBS) and incubated with MTT salt solution (5 mg/mL in 0.1 M PBS) and 100 μL CCM for 4 h (37 °C, 5% CO2). The MTT salt solution was removed, and DMSO (100 μL/well) was added and incubated for 1 h. The optical density was measured using a spectrophotometer (Bio-Tek μQuant) at 570/690 nm. Results are expressed as % cell viability versus BP2 concentration (μg/mL).

[2] = MTT cell viability assay; type: cell-based, human; settings: human, HepG2 cells, 6 h, read-out: IC50 cytotoxicity
Experimental: as §1, §2

[3] = test system: Enterobacter cloacae BM 5 (IMP-1); assay: MIC, broth microdilution and checkerboard assay; type: cell-based
Experimental: (§3) The Minimum Inhibitory Concentration (MIC) of meropenem BP2 was determined utilizing the broth microdilution assay, as described by the Clinical and Laboratory Standards Institute (CLSI) antimicrobial susceptibility guidelines. The mono-therapeutic effect of each antibiotic and MBLI was evaluated across a panel of MBL-producing Enterobacterales.
(§4) The drug susceptibility profile of meropenem in combination with BP2 was studied using the checkerboard assay. This assay was used to ascertain the effect of two drugs on antimicrobial resistance targeting CRE strains. The assay was performed according to the protocol described previously and was under CLSI antimicrobial susceptibility guidelines. Briefly, twofold dilutions of meropenem with each chelator were made in Cation-adjusted Mueller Hinton Broth (CAMHB) in a 96-well microtiter plate. A 0.5 McFarland-standardized bacterial inoculum was added to each well to obtain a final volume of 100 µL per well. Thereafter, plates were incubated at 37 °C for 18 h under aerobic conditions. The checkerboard assays were performed in triplicate. The MIC was determined as the lowest concentration at which no visible growth was present. The fractional inhibitory concentration index (FICI) was calculated for each combination according to the equation FICI = FICa (MIC of drug A in combination/MIC of drug A alone) + FICb (MIC of drug B in combination/MIC of drug B alone). The FICI was interpreted as follows: synergy, FICI ≤ 0.5; additive 0.5–1; indifference, […] FICI < 4; and antagonism, FICI ≥ 4 [61].

[4] = test system: Serratia marcescens (IMP-11); assay: MIC, broth microdilution and checkerboard assay; type: cell-based
Experimental: as §3, §4

[5] = test system: Enterobacter cloacae TWA (IMP-8); assay: MIC, broth microdilution and checkerboard assay; type: cell-based
Experimental: as §3, §4

[6] = test system: Escherichia coli JAP (IMP-1); assay: MIC, broth microdilution and checkerboard assay; type: cell-based
Experimental: as §3, §4

[7] = test system: Enterobacter cloacae IR 386 (NDM-1); assay: MIC, broth microdilution and checkerboard assay; type: cell-based
Experimental: as §3, §4

[8] = test system: Escherichia coli AUS 271 (NDM-1); assay: MIC, broth microdilution and checkerboard assay; type: cell-based
Experimental: as §3, §4

[9] = test system: Escherichia coli BM 14 (VIM-1); assay: MIC, broth microdilution and checkerboard assay; type: cell-based
Experimental: as §3, §4

[10] = test system: Klebsiella pneumoniae 6852 (IMP-1); assay: MIC, broth microdilution and checkerboard assay; type: cell-based
Experimental: as §3, §4

[11] = test system: Escherichia coli DIH (VIM-19); assay: MIC, broth microdilution and checkerboard assay; type: cell-based
Experimental: as §3, §4

[12] = test system: Klebsiella pneumoniae TWA (IMP-8); assay: MIC, broth microdilution and checkerboard assay; type: cell-based
Experimental: as §3, §4

[13] = target: T1, VIM-2 (Escherichia coli, UniProt Q5U7L7); assay: Enzyme inhibition kinetics (nitrocefin); type: biochemical
T1 construct: purchased RayBiotech (RayBiotech Life Inc., Peachtree Corners, GA, USA)
Experimental: (§5) The IC50 was calculated from the generated sigmoidal curves (Figure S1) using GraphPad Prism software version 8.0.2 (GraphPad Inc., San Diego, CA, USA), and the Ki app was calculated using the Cheng–Prusoff equation [43]. […] However, we expect that inhibitors that remove one Zn atom from the enzyme active site will be slow-acting irreversible inhibitors that would require a more detailed kinetic analysis than used here. […] Structurally, BP2 is a thiazole-containing compound, while BP1 lacks this moiety. It is unclear whether the increased inhibition activity is due to the longer distance between the chelator moiety and the lactam moiety, which is less likely to sterically hinder the chelator, or if it is the thiazole itself that boosts the interaction efficacy of the compound.
(§6) A dose-dependent enzyme inhibition assay was performed using a Biotek PowerWave XS2 (Biotek Instruments Inc., Winooski, VT, USA) plate reader. NDM-1 and VIM-2 enzymes were purchased from RayBiotech (RayBiotech Life Inc., Peachtree Corners, GA, USA). Enzymes in the quantity of 1 nM (NDM-1) or 0.5 nM (VIM-2) were used in this study with a fixed nitrocefin concentration of either 120 µM (NDM-1) or 50 µM (VIM-2) and varying BP2 concentrations ranging from 5 to 200 µM (NDM-1) and 2.5 to 300 µM (VIM-2) in 50 mM HEPES buffer supplemented with 100 µg/mL BSA and 10 µM ZnCl2. Inhibition was measured at 482 nm at 25 °C.

[14] = target: T2, NDM-1 (Klebsiella pneumoniae, UniProt C7C422); assay: Enzyme inhibition kinetics (nitrocefin); type: biochemical
T2 construct: purchased RayBiotech (RayBiotech Life Inc., Peachtree Corners, GA, USA)
Experimental: as §5, §6

[15] = test system: HepG2 cells; assay: LDH membrane leakage assay; type: cell-based, human
Experimental: as §1
The LDH assay was used to assess membrane damage of HepG2 cells. Supernatant collected from control and BP2 treated cells were centrifuged (400× g, 24 °C, 10 min) and dispensed (100 μL/well) in triplicate into a 96-well microtiter plate. LDH reagent (100 μL, 11644793001, Sigma Aldrich, Schnelldorf, Germany) was added to each well. The plate was incubated for 30 min at room temperature in the dark. Absorbance was read using a spectrophotometer (Bio-Tek μQuant,) at […]. Results are represented as relative fold change compared to untreated control.

T2 sequence (C7C422 29-270, looked up, species assumed): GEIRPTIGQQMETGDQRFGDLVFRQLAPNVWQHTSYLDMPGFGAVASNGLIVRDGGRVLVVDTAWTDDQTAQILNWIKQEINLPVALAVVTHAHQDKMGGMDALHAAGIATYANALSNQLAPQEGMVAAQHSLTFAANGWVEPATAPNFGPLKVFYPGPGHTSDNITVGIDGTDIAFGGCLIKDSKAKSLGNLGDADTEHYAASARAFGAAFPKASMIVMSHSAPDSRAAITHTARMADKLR

Which “Cell viability compared to the control” value ([1]; 1 µg/mL and 10 µg/mL) does the source give for `CON=C(C(=O)NC1C(=O)N2C(C(=O)O)=C(COC(C)=O)CSC12)c1csc(NC(=O)CC(C(=O)OC)N2CCN(CC(=O)O)CCN(CC(=O)O)CC2)n1` (stereo in doubt) [BP2] here?
The value was “significantly increased”.

What about the “Cell viability compared to the control” value ([1]; 200 µg/mL) of the same compound?
Its value is “significant decrease”.

What about the “Cell viability compared to the control” value ([1]; 50–100 µg/mL) of the same compound?
Its value is “not significantly altered”.

And the IC50 at 6 h [2]?
Its IC50 at 6 h is 62 µg/mL (≈ 76.3 µM).

And the MIC ([3]; read-out: MIC BP2 Alone)?
Its MIC is over 256 µg/mL.

What about the MIC ([4]; read-out: MIC BP2 Alone) of the same compound?
The MIC was over 256 µg/mL.

What about the MIC ([5]; read-out: MIC BP2 Alone) of the same compound?
The MIC was over 256 µg/mL.

What about the MIC ([6]; read-out: MIC BP2 Alone) of the same compound?
The MIC was over 256 µg/mL.

What about the MIC ([7]; read-out: MIC BP2 Alone) of the same compound?
Its MIC is over 256 µg/mL.

What about the MIC ([8]; read-out: MIC BP2 Alone) of the same compound?
The MIC was over 256 µg/mL.

And the MIC ([9]; read-out: MIC BP2 Alone)?
The MIC was over 256 µg/mL.

What about the MIC ([10]; read-out: MIC BP2 Alone) of the same compound?
Its MIC is over 256 µg/mL.

And the MIC ([11]; read-out: MIC BP2 Alone)?
The MIC was over 256 µg/mL.

What about the MIC ([12]; read-out: MIC BP2 Alone) of the same compound?
Its MIC is over 256 µg/mL.

What about the IC50 ([13]; VIM-2 0.5 nM, nitrocefin 50 µM, mean ± SD) of the same compound?
Its IC50 is 57.1 ± 2.9 µM.

What about the Ki ([13]; VIM-2, Cheng–Prusoff equation, read-out: Ki app) of the same compound?
Its Ki is 30.9 µM.

What about the IC50 ([14]; NDM-1 1 nM, nitrocefin 120 µM, mean ± SD) of the same compound?
Its IC50 is 70.7 ± 4.5 µM.

What about the Ki ([14]; NDM-1, Cheng–Prusoff equation, read-out: Ki app) of the same compound?
Its Ki is 35.3 µM.

And the LDH levels ([15]; HepG2, 1 µg/mL)?
The LDH levels was “remained unaffected”.

What about the LDH membrane leakage ([15]; HepG2, 8 µg/mL–200 µg/mL) of the same compound?
Its LDH membrane leakage is “significantly decreased”.

What about the “Cell membrane integrity (LDH leakage)” value ([15]; HepG2, all concentrations tested) of the same compound?
Its value is “not disrupted”.

What does the source list for `C[C@@H](O)[C@H]1C(=O)N2C(C(=O)O)=C(S[C@@H]3CN[C@H](C(=O)N(C)C)C3)[C@H](C)[C@H]12` [Meropenem]?
MIC ([3]; read-out: MIC MEM Alone): > 32 µg/mL; MIC ([4]; S. marcescens IMP-11, alone, read-out: MIC MEM Alone): > 32 µg/mL; MIC ([5]; E. cloacae TWA IMP-8, alone, read-out: MIC MEM Alone): 0.125 µg/mL; MIC ([6]; E. coli JAP IMP-1, alone, read-out: MIC MEM Alone): 8 µg/mL; MIC ([7]; E. cloacae IR 386 NDM-1, alone, read-out: MIC MEM Alone): 32 µg/mL; MIC ([8]; E. coli AUS 271 NDM-1, alone, read-out: MIC MEM Alone): > 128 µg/mL; MIC ([9]; E. coli BM 14 VIM-1, alone, read-out: MIC MEM Alone): 32 µg/mL; MIC ([10]; K. pneumoniae 6852 IMP-1, alone, read-out: MIC MEM Alone): > 32 µg/mL; MIC ([11]; E. coli DIH VIM-19, alone, read-out: MIC MEM Alone): > 32 µg/mL; MIC ([12]; K. pneumoniae TWA IMP-8, alone, read-out: MIC MEM Alone): 8 µg/mL
